Results from patent US9815796B2 (Merck Sharp & Dohme Corp., priority 2013, dated 2017).

biological target: human PDE2A1 (Homo sapiens (Human), UniProt O00408); test: IMAP FP PDE selectivity panel, human PDE2A1; format: biochemical; settings: Human PDE2, Lab B; read-out: Human PDE2 Ki (nM) - Lab B
Protocol: Selectivity for PDE2, as compared to other PDE families, was assessed using the IMAP® technology. Human PDE 10A2 enzyme was prepared from cytosolic fractions of transiently transfected HEK cells. All other PDE's were GST Tag human enzyme expressed in insect cells and were obtained from BPS Bioscience (San Diego, Calif.): PDE1A (Cat#60010), human PDE2A1 (Cat#60020), PDE3A (Cat#60030), PDE4A1A (Cat#60040), PDE5A1 (Cat#60050), PDE6C (Cat#60060), PDE7A (Cat#60070), PDE8A1 (Cat#60080), PDE9A2 (Cat#60090), PDE11A4 (Cat#60110).
Assays for PDE 1 through 11 were performed in parallel at room temperature in 384-well microtiter plates with an incubation volume of 20.2 μL. Solutions of test compounds were prepared in DMSO and serially diluted with DMSO to yield 30 μL of each of ten solutions differing by 3-fold in concentration, at 32 serial dilutions per plate. […] A Labcyte POD 810 (Labcyte, Sunnyvale, Calif.) was used to dispense 200 nL from each well of the titration plate to make eleven copies of the assay plate for each titration, one copy for each PDE enzyme. A solution of each enzyme (dilution from aliquots, sufficient to produce 20% substrate conversion) and a separate solution of FAM-labeled cAMP or FAM-labeled cGMP from Molecular Devices (Sunnyvale, Calif., product # R7506 or cGMP#R7508), at a final concentration of 50 nM were made in the assay buffer (10 mM Tris HCl, pH 7.2, 10 mM MgCl2, 0.05% NaN3 0.01% Tween-20, and 1 mM DTT). Note that the substrate for PDE2 is 50 nM FAM cAMP containing 1000 nM of cGMP. The enzyme and the substrate were then added to the assay plates in two consecutive additions of 10 μL and then shaken to mix. The reaction was allowed to proceed at room temperature for 60 minutes. A binding solution was then made from the kit components, comprised of 80% Solution A, 20% Solution B and binding reagent at a volume of 1/600 the total binding solution. The enzymatic reaction was stopped by addition of 60 μL of the binding solution to each well of the assay plate. The plates were sealed and shaken for 10 seconds. The plates were incubated at room temperature for one hour, then the parallel and perpendicular fluorescence was measured using a Tecan Genios Pro plate reader (Tecan, Switzerland). The apparent inhibition constants for the compounds against all 11 PDE's was determined from the parallel and perpendicular fluorescent readings as described for PDE10 FP assay using the following apparent KM values for each enzyme and substrate combination: PDE1A (FAM cGMP) 70 nM, human PDE2A1 (FAM cAMP) 10,000 nM, PDE3A (FAM cAMP) 50 nM, PDE4A1A (FAM cAMP) 1500 nM, PDE5A1 (FAM cGMP) 400 nM, PDE6C (FAM cGMP) 700 nM, PDE7A (FAM cAMP) 150 nM, PDE8A1 (FAM cAMP) 50 nM, PDE9A2 (FAM cGMP) 60 nM, PDE10A2 (FAM cAMP) 150 nM, PDE11A4 (FAM cAMP) 1000 nM. The intrinsic PDE2 inhibitory activity of a compound which may be used in accordance with the present invention may be determined by these assays.

human PDE2A1, sequence (O00408 other isoform, or with tags, fused parts or gaps): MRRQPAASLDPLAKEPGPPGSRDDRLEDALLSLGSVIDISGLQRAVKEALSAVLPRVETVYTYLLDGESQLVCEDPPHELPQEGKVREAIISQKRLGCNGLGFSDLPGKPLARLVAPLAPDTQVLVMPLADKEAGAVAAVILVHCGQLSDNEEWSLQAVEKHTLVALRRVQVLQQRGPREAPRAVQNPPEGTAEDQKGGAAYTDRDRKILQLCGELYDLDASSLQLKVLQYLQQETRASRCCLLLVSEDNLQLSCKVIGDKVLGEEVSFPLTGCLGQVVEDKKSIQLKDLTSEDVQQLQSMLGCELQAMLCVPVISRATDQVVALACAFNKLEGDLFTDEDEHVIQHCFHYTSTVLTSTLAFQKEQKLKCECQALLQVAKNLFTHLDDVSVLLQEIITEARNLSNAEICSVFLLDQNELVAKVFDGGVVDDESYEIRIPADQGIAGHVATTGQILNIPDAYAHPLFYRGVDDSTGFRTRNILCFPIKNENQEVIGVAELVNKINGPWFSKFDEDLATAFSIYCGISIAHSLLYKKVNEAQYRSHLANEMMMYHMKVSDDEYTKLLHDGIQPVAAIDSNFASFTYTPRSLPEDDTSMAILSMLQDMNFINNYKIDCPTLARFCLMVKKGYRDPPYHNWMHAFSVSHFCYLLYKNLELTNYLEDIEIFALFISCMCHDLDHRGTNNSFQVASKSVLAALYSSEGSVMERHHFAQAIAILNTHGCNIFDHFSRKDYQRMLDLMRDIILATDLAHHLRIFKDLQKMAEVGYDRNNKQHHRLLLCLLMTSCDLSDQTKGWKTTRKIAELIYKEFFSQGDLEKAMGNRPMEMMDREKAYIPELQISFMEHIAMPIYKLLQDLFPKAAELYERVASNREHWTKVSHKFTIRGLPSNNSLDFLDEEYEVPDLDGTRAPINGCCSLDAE

Row | Compound | Ki [nM]
1 | CC(C)(C)c1ccc([C@H](NC(=O)c2cc(=O)[nH]c(-c3ncccn3)n2)C2(C)CC2)cc1 [Example 563, N-[(R)-(4-tert-butylphenyl)(1-methylcyclopropyl)methyl]-6-oxo-1,6-dihydro-2,2′-bipyrimidine-4-carboxamide] | 27
2 | CC1([C@@H](NC(=O)c2cc(=O)[nH]c(-c3ccccc3)n2)c2ccc(OC(F)F)cc2)CC1 [Example 548, N-[(R)-[4-(difluoromethoxy)phenyl](1-methylcyclopropyl)methyl]-6-oxo-2-phenyl-1,6-dihydropyrimidine-4-carboxamide] | 4.5
3 | CC(C)(C)[C@@H](NC(=O)c1cc(=O)[nH]c(-c2ccccc2)n1)c1ccc(OC(F)(F)F)c(F)c1 [Example 542, N-{(1R)-1-[3-fluoro-4-(trifluoromethoxy)phenyl]-2,2-dimethylpropyl}-6-oxo-2-phenyl-1,6-dihydropyrimidine-4-carboxamide] | 1.4
4 | O=C(NC1(c2ccc(CC(F)(F)F)cc2)CC1)c1cc(=O)[nH]c(-c2ncccn2)n1 [Example 578, 6-oxo-N-{1-[4-(2,2,2-trifluoroethyl)phenyl]cyclopropyl}-1,6-dihydro-2,2′-bipyrimidine-4-carboxamide] | 104
5 | Cc1nc(C(=O)NC2(c3ccc4c(c3)OC(F)(F)O4)CC2)cc(=O)[nH]1 [Example 534, N-[1-(2,2-difluoro-1,3-benzodioxol-5-yl)cyclopropyl]-2-methyl-6-oxo-1,6-dihydropyrimidine-4-carboxamide] | 87
6 | CC(C)(C)[C@@H](NC(=O)c1cc(=O)[nH]c(-c2ccccc2)n1)c1ccc(C2CC2)cc1 [Example 536, N-[(1R)-1-(4-cyclopropylphenyl)-2,2-dimethylpropyl]-6-oxo-2-phenyl-1,6-dihydropyrimidine-4-carboxamide] | 0.51
7 | O=C(NC1(c2ccc(S(F)(F)(F)(F)F)cc2)CC1)c1cc(=O)[nH]c(-c2ncccn2)n1 [Example 570, 6-oxo-N-{1-[4-(pentafluoro-λ^6-sulfanyl)phenyl]cyclopropyl}-1,6-dihydro-2,2′-bipyrimidine-4-carboxamide] | 21
8 | O=C(N[C@@H](c1ccc(C2CC2)c(F)c1)C1CC1)c1cc(=O)[nH]c(-c2ccccc2)n1 [Example 546, N-[(R)-cyclopropyl(4-cyclopropyl-3-fluorophenyl)methyl]-6-oxo-2-phenyl-1,6-dihydropyrimidine-4-carboxamide] | 3.8
9 | CC1([C@@H](NC(=O)c2cc(=O)[nH]c(-c3ncccn3)n2)c2ccc(C(F)(F)F)c(F)c2)CC1 [Example 583, N-[(R)-[3-fluoro-4-(trifluoromethyl)phenyl](1-methylcyclopropyl)methyl]-6-oxo-1,6-dihydro-2,2′-bipyrimidine-4-carboxamide] | 8
10 | O=C(N[C@@H](c1ccc(C2CC2)c(F)c1)C1CC1)c1cc(=O)[nH]c(-c2ncccn2)n1 [Example 581, N-[(R)-cyclopropyl(4-cyclopropyl-3-fluorophenyl)methyl]-6-oxo-1,6-dihydro-2,2′-bipyrimidine-4-carboxamide] | 13
11 | CC(C)(C)[C@@H](NC(=O)c1cc(=O)[nH]c(-c2ccccc2)n1)c1ccc(CC(F)(F)F)cc1 [Example 537, N-{(1R)-2,2-dimethyl-1-[4-(2,2,2-trifluoroethyl)phenyl]propyl}-6-oxo-2-phenyl-1,6-dihydropyrimidine-4-carboxamide] | 2.4
12 | COc1cc(C(F)(F)F)ccc1C(C)(C)NC(=O)c1cc(=O)[nH]c(-c2ncccn2)n1 [Example 572, N-{1-[2-methoxy-4-(trifluoromethyl)phenyl]-1-methylethyl}-6-oxo-1,6-dihydro-2,2′-bipyrimidine-4-carboxamide] | 741
13 | CC(C)(C)[C@@H](NC(=O)c1cc(=O)[nH]c(-c2ncccn2)n1)c1ccc(OC(F)(F)F)c(F)c1 [Example 554, N-{(1R)-1-[3-fluoro-4-(trifluoromethoxy)phenyl]-2,2-dimethylpropyl}-6-oxo-1,6-dihydro-2,2′-bipyrimidine-4-carboxamide] | 8.2
14 | Cc1nc(C(=O)NC(C)(C)c2ccc(C(F)(F)F)cc2C)cc(=O)[nH]1 [Example 595, 2-methyl-N-{1-methyl-1-[2-methyl-4-(trifluoromethyl)phenyl]ethyl}-6-oxo-1,6-dihydropyrimidine-4-carboxamide] | 37

Other lines, results leading:

Row | Ki [nM] | Compound
15 | 234 | C[C@@H](NC(=O)c1cc(=O)[nH]c(-c2ncco2)n1)c1ccc(C(F)(F)F)cc1 [Example 675, (R)-2-(oxazol-2-yl)-6-oxo-N-(1-(4-(trifluoromethyl)phenyl)ethyl)-1,6-dihydropyrimidine-4-carboxamide]
16 | 39 | CCC(C)(NC(=O)c1cc(=O)[nH]c(C)n1)c1ccc(C(F)(F)F)cc1F (single isomer, unassigned) [Example 718, (S)- or (R)-N-(2-(2-fluoro-4-(trifluoromethyl)phenyl)butan-2-yl)-2-methyl-6-oxo-1,6-dihydropyrimidine-4-carboxamide]
17 | 16 | Cc1nc(C(=O)NC2(c3ccc(C(F)(F)F)cc3Cl)CC2)cc(=O)[nH]1 [Example 637, N-{1-[2-chloro-4-(trifluoromethyl)phenyl]cyclopropyl}-2-methyl-6-oxo-1,6-dihydropyrimidine-4-carboxamide]
18 | 47 | Cc1nc(C(=O)N[C@@H](c2ccc(C(F)F)cc2)C2CC2)cc(=O)[nH]1 [Example 649, N-{(1R)-cyclopropyl[4-(difluoromethyl)phenyl]methyl}-2-methyl-6-oxo-1,6-dihydropyrimidine-4-carboxamide]
19 | 115 | CC(NC(=O)c1cc(=O)[nH]c(C2CC2)n1)c1ccc(C(C)(C)C(F)(F)F)cc1 (single isomer, unassigned) [Example 697]
20 | 3.2 | CCc1nc(C(=O)NC(C)(C)c2ccc(C(F)(F)F)cc2Cl)cc(=O)[nH]1 [Example 608, N-{1-[2-chloro-4-(trifluoromethyl)phenyl]-1-methylethyl}-2-ethyl-6-oxo-1,6-dihydropyrimidine-4-carboxamide]
21 | 33 | Cc1nc(C(=O)N[C@@H](c2ccc(C(F)F)c(F)c2)C(C)C)cc(=O)[nH]1 [Example 650, N-{(1R)-1-[4-(difluoromethyl)-3-fluorophenyl]-2-methylpropyl}-2-methyl-6-oxo-1,6-dihydropyrimidine-4-carboxamide]
22 | > 2960 | CC(NC(=O)c1cc(=O)[nH]c(-c2ncccn2)n1)c1ccc(C(C)(C)C(F)(F)F)cc1 (single isomer, unassigned) [Example 700, (S)- or (R)-6-oxo-N-(1-(4-(1,1,1-trifluoro-2-methylpropan-2-yl)phenyl)ethyl)-1,6-dihydro-[2,2′-bipyrimidine]-4-carboxamide]
23 | > 2960 | CC(NC(=O)c1cc(=O)[nH]c(C2CC2)n1)c1ccc(C2(C(F)(F)F)CC2)cc1 (single isomer, unassigned) [Example 688, (S)- or (R)-2-cyclopropyl-6-oxo-N-(1-(4-(1-(trifluoromethyl)cyclopropyl)phenyl)-ethyl)-1,6-dihydropyrimidine-4-carboxamide]
24 | 1.5 | CC1(c2ccc(C(NC(=O)c3cc(=O)[nH]c(C4CC4)n3)C(C)(C)C)cc2F)CC1 (single isomer, unassigned) [Example 713, (R)- or (S)-2-cyclopropyl-N-(1-(3-fluoro-4-(1-methylcyclopropyl)phenyl)-2,2-dimethylpropyl)-6-oxo-1,6-dihydropyrimidine-4-carboxamide]
25 | ~1570 | Cc1nc(C(=O)N[C@]2(c3ccc(C(C)C)cc3)C[C@H]2C)cc(=O)[nH]1 (single isomer, unassigned) [Example 664, 2-methyl-N-{2-methyl-1-[4-(1-methylethyl)phenyl]cyclopropyl}-6-oxo-1,6-dihydropyrimidine-4-carboxamide]
26 | 108 | Cc1nc(C(=O)NC(C)(C)c2ccc3c(c2)OC(F)(F)O3)cc(=O)[nH]1 [Example 604, N-[1-(2,2-difluoro-1,3-benzodioxol-5-yl)-1-methylethyl]-2-methyl-6-oxo-1,6-dihydropyrimidine-4-carboxamide]
